This is an account of results in patent publication US20250352676A1, “N-Cyclopropyl-1-(4-(4-(Fluoro-18f)Phenyl)Pyrimidin-5-Yl)-N-Methylpiperidine- 4-Carboxamide and Uses in PET Imaging” (Emory University, priority 2022, published 2025).

Structures are written as SMILES. Like-named read-outs stand apart in the source and are kept apart here.

The target in one data set is T1, human CYP46A1 (hCYP46A1) (Homo sapiens, UniProt Q9Y6A2).
T1 construct: expressed in transfected cells; host or cells: HEK cells (HEK-CYP46A1)
As to the kind of experiment: Cell uptake studies in HEK cells overexpressing hCYP46A1. It counts as cell-based. As for the experimental part: Cell uptake studies were conducted with transfected human embryonic kidney (HEK) cells overexpressing human CYP46A1 (hCYP46A1) and respective controls.
Cell uptake assays were conducted using hCYP46A1 enzyme-HEK cell line (HEK-CYP46A1) and HEK control cells were cultured in Dulbecco's modified Eagle's medium (DMEM) supplemented with 10% fetal bovine serum and antibiotics (0.1 mg/ml streptomycin and 100 IU/ml penicillin). Cells were kept under standard conditions at 37° C. and 5% CO2 and subsequently subpassaged using a solution of 0.25% trypsin and 0.02% EDTA. For cell uptake measurements, HEK-CYP46A1 and HEK control cells were seeded into a 24-well plate at a density of 2×10^5 cells per well the day before the experiment. The medium was replaced with fresh DMEM including ^18F-CHL-2205 (ca. 74 kBq per well) and incubated at 37° C. for 15, 30, and 45 min. The supernatant was collected, and the cells were washed twice with cold 1×phosphate-buffered salinc (PBS) and then harvested by adding 200 μl of 1N NaOH followed by additional two times rinsing with 1×PBS. The blocking assay was performed with the HEK-CYP46A1 cells. […] Supernatant and cell suspensions including 1×PBS from each wash step were collected and then measured using a gamma counter, whereas cell uptake was expressed as the percentage of the added dose after decay correction.

The target of data set [1] is T2, CYP46A1 (Mus musculus, UniProt Q9WVK8). As to the kind of experiment: PET imaging in 3xTg-AD mice and controls. It counts as in vivo. Details: from tissue; host or cells: mouse brain (Cyp46A1+/+ controls; 3xTg-AD mice and controls). The note with it: baseline, intravenous administration. As for the experimental part:
Tracer binding was assessed and validated in the 3xTg-AD mouse model. […] Hippocampal uptake of the CYP46A1 tracer was compared between 3xTg-AD mice and respective controls.
(§1) CD1, 3×Tg-AD mice and respective controls (sex: female, age: 9 to 13 months), as well as rats were purchased from established commercial vendors and kept under a 12-hour light/12-hour dark cycle, with ad libitum food and water. Animals were allowed to acclimatize for at least 1 week before the start of the experimental procedures. Mice and rats were anesthetized with isoflurane and scanned in a μPET/computed tomography (CT) scanner for 60 min after tail-vein injection of 18F-CHL-2205. Data were reconstructed in user-defined time frames. Time-activity curves (TACs) were calculated with predefined regions of interest. Results are presented as area under the curve (AUC) from the respective TACs of SUVs, indicating the decay-corrected radioactivity per cubic centimeter, divided by the injected dose per gram of body weight.

Data set [2] concerns the target T2, CYP46A1. As to the kind of experiment: Brain binding in Cyp46A1 knockout versus control mice. Details: from tissue; host or cells: mouse brain (Cyp46A1+/+ controls; 3xTg-AD mice and controls). The text has this: A consideration in CNS-targeted PET constitutes the ability of the tracer to selectivity bind to a target protein while lacking interactions with other abundant brain proteins.

The nature of data set [3]: Incubation with rat liver microsomes (radiodefluorination). Format: in vitro ADME.
For data set [4], the target named is T3, CYP46A1 (Rattus norvegicus, UniProt A0ACM8QFK4).
T3 construct: from tissue; host or cells: brain of living rats
As to the kind of experiment: PET imaging and ex vivo brain studies after intravenous injection to rats. It counts as in vivo. As for the experimental part:
(§2) PET imaging studies were conducted by intravenous injection of 18F-CHL-2205 to rats. […] Greater than 99% of the brain signal was attributed to the intact parent tracer. The brain signal was substantially devoid of interference by radiometabolites. By ex vivo studies, greater than 90% of the signal in the brain was specific at 15, 30, and 45 min after injection.
as §1

The format of data set [5] is in vitro ADME, VHP. As to the method:
as §2

Another data set in a line: Dosimetry experiments. It counts as in vivo.
Data set [6] in a line: Incubation with mouse liver microsomes (radiodefluorination). It counts as in vitro ADME. Background: Microsomes from liver hold many membrane-bound enzymes, among them those of drug oxidation.
The target in data set [7] is T2, CYP46A1. As to the kind of experiment: Saturation binding studies with brain homogenates. Also on record: species or system rodent. As for the experimental part: Experiments were performed to determine whether a targeted PET imaging probe would allow the quantification of cholesterol metabolism in the living brain, ultimately paving the way for mechanistic studies on brain cholesterol metabolism in humans. […] The tracer distribution matched closely with the Allen Brain Atlas distribution of CYP46A1 expression data in the mouse brain. Quantification of CYP46A1 by Western blot analysis in the same brain regions confirmed that tracer binding patterns were in concert with CYP46A1 expression across all tested brain regions. Saturation binding studies were performed to determine the dissociation constant (KD) of the probe as well as to assess the amount of available CYP46A1 protein (Bmax) in selected brain regions.

Data set [8] can be described thus: Incubation with human liver microsomes (radiodefluorination). It counts as in vitro ADME.
Data set [9] concerns major CNS targets, including common G protein-coupled receptors, ion channels, enzymes, and transporters. As to the kind of experiment: Pharmacological screening on major CNS targets. The note with it: testing concentration of 10 μM.
For data set [10], the target named is T4, CYP46A1 (Homo sapiens, UniProt Q9Y6A2). The data set can be described thus: Clinical PET study in healthy volunteers. It counts as in vivo. Also on record: from tissue; host or cells: brain of living healthy volunteers. The note with it: CYP46A1-rich regions. As to the method:
Eight healthy participants underwent a PET scan with 18F-CHL-2205, followed by a magnetic resonance imaging (MRI) scan for anatomical orientation. Because of the physical half-life of fluorine-18 (109.8 min), the tracer was produced on the day of the experiment in a designated hot cell that provided shielding from radiation exposure and was equipped with an automated synthesis module. PET scans were performed for a duration of 90 min, and the data were subsequently reconstructed to allow the assessment of tracer uptake as a surrogate for CYP46A1 abundancy and cholesterol metabolism.
Experiments were performed to determine whether CYP46A1-targeted PET was sensitive to sex differences in brain cholesterol metabolism. […] Conversely, there was no difference in tracer uptake for low-target density regions such as the cerebellum and brainstem. These findings imply that considerable sex differences in brain cholesterol metabolism via CYP46A1 exist in humans.
An open-label clinical study to evaluate the tolerability, safety, and tracer performance characteristics of 18F-CHL-2205 in healthy volunteers (four men and four women, 22 to 31 years of age) was conducted. […] Volumes of distribution were further determined by Logan graphical analysis and were used to calculate binding potentials. […]

Data set [11] addresses T5, CYP46A1 (Macaca mulatta, UniProt I2CYF7). As to the kind of experiment: In vitro autoradiography of NHP brain. Also on record: from tissue; host or cells: NHP brain sections. Format: binding, NHPs. The note with it: excess blocker. As to the method: PET imaging experiments were conducted in non-human primates (NHPs). Consistent with observations from rodent data, the signal intensity of tracer binding correlated with high abundancy regions for CYP46A1, including the putamen, caudate, and limbic cortical regions such as superficial layers of temporal, insular, and cingulate cortex, as evidenced by in vitro autoradiograms of the brain.

For data set [12], the target named is T5, CYP46A1. As to the kind of experiment: Target occupancy PET study in rhesus monkeys. Also on record: from tissue; host or cells: brain of living rhesus monkeys. The note with it: rhesus monkey; dose of 0.9 μmol/kg intravenous, all regions. It counts as in vivo.
Method: Four rhesus monkeys (4.8 to 9.3 kg) were anesthetized by intramuscular injection of ketamine (10 mg/kg) and then put on the MRI scanning bed in the supine position. Whole-brain images were acquired. For PET, the subjects were initially anesthetized with ketamine (10 mg/kg, intramuscularly), put on the scanning bed, and maintained under anesthesia with 2% isoflurane and 98% oxygen. All rhesus monkeys were supine, and a stereotactic frame was used to fix the position of the head. […] PET/CT and MR images were co-registered. TACs were derived from the respective volumes of interest and were presented as SUVs, which were decay-corrected to the time of radioligand injection. Whole-blood samples were collected from an arterial catheter to measure radioactivity in whole blood and plasma. […]
Then, the mixture was injected into a high-performance liquid chromatography (HPLC) system equipped with a semipreparative IIPLC column and an ultraviolet detector with the wavelength set at 254 nm. […] The HPLC fractions were collected at 30-s intervals for 13 min; each fraction was counted with automatic gamma well counter. […] Tissue volumes of distribution (VT) and non-displaceable binding potential (BPND) values were determined from a two-tissue compartment model, with metabolite-corrected arterial input function.
In data set [13] the target is T4, CYP46A1. The data set can be described thus: Competitive displacement of 18F-CHL-2205. It counts as binding. (In general: Displacement assays read how much labelled ligand stays bound in the presence of the test substance.)

T4 sequence (Q9Y6A2 whole entry): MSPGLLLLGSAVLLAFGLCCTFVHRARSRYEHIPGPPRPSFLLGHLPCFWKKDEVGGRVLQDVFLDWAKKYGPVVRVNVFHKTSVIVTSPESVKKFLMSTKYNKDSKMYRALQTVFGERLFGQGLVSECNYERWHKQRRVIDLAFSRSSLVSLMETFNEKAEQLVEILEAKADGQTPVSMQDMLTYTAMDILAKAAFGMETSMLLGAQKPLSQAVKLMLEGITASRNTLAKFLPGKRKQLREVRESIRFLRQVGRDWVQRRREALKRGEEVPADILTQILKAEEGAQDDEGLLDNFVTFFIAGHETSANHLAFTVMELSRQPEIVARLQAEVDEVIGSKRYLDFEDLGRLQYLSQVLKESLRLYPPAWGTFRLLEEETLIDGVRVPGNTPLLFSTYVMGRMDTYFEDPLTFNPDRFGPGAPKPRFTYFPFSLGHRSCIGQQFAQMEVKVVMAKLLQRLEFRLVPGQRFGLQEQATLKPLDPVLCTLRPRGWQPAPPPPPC
T2 sequence (Q9WVK8 whole entry): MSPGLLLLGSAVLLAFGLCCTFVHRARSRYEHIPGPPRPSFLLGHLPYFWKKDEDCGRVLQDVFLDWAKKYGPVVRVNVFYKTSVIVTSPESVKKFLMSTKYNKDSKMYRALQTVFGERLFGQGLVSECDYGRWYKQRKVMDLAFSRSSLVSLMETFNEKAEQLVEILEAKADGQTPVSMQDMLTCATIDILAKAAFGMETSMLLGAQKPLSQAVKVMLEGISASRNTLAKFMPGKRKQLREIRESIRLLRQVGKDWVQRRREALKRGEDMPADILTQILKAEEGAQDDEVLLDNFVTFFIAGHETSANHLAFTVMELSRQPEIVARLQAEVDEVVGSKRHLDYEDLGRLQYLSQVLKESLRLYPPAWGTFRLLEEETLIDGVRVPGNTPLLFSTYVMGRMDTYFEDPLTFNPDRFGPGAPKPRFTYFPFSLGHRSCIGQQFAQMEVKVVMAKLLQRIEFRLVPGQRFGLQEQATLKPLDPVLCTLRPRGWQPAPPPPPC
T3 sequence (A0ACM8QFK4 29-500): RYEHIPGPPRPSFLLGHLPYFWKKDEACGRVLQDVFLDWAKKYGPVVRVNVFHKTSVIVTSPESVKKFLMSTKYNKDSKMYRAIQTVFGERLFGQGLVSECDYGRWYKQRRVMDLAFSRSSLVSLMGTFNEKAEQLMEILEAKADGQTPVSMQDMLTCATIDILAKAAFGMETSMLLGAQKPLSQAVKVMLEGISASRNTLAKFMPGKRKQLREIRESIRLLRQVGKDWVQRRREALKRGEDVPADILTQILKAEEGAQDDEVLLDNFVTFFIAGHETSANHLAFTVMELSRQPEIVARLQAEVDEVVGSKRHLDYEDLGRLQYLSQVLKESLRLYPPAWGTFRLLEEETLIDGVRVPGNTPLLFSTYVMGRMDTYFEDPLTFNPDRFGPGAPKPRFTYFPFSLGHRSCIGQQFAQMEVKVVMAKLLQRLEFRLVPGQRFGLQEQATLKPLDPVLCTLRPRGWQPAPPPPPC
T5 sequence (I2CYF7 29-500): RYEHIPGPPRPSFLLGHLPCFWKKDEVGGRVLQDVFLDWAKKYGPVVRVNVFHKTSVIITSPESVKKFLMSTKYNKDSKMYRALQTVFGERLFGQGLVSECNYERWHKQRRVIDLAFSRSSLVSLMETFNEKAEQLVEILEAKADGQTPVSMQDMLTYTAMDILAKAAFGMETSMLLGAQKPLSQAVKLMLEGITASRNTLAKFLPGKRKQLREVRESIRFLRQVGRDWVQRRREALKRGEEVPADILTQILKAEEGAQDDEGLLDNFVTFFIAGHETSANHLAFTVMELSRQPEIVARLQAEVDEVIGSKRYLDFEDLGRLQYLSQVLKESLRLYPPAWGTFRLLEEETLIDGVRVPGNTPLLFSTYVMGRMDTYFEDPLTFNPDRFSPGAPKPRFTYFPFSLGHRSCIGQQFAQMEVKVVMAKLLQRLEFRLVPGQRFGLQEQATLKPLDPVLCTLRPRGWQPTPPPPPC
T1 sequence (Q9Y6A2 whole entry): as the sequence (Q9Y6A2 whole entry) above

Turning to `CN(C(=O)C1CCN(c2cncnc2-c2ccc([18F])cc2)CC1)C1CC1` [18F-CHL-2205, N-cyclopropyl-1-(4-(4-(fluoro-18F)phenyl)pyrimidin-5-yl)-N-methylpiperidine-4-carboxamide], at human CYP46A1 (hCYP46A1) (HEK cells overexpressing hCYP46A1 vs HEK controls), the “cell uptake in transfected cells compared to controls” value is on record as “fivefold increase”. In addition, on CYP46A1 [1], the “hippocampal time-activity curves (TACs) in 3xTg-AD mice versus controls” value was “consistently higher”. Moreover, the “tracer binding in brains of Cyp46A1−/− animals versus control” value at CYP46A1 [2] (Cyp46A1−/− vs Cyp46A1+/+ mice) is recorded as “signal diminished”. Also, the “stability against radio defluorination” value in [3], in data set [5], in data set [6] and in data set [8] was “stable against radio defluorination” throughout. In addition, the “brain signal attributed to the intact parent tracer” value at CYP46A1 [4] (brain) was “Greater than 99%”. For the same compound, on CYP46A1 [4] (ex vivo studies, 15, 30, and 45 min after injection), the “specific signal in the brain” value is recorded as “greater than 90%”. At CYP46A1 [4] (rats, intravenous injection, PET), the “brain uptake after systemic administration” value is reported as “rapid tracer uptake into the brain”. In “Dosimetry experiments”, this compound displayed an effective dose of 0.012 mSv/MBq. The “Bmax (amount of available CYP46A1 protein)” value at CYP46A1 [7] (cerebellum) came out at 21.9 fmol/g; on CYP46A1 [7] (striatum), 117.3 fmol/g. In addition, the off-target activity entry in [9] is “no off-target activity”. Moreover, the “SUV15-30 in the caudate and putamen, women versus men” value on CYP46A1 [10] was “higher in women than in men”.

As to `O=C(c1cccnc1-c1ccncc1)N1CCC(O)(Cc2ccccc2)CC1` [soticlestat], the “tracer signal of the transfected cell population on co-incubation” value on human CYP46A1 (hCYP46A1) (escalating doses, HEK-CYP46A1 cells, 18F-CHL-2205 tracer) was “attenuated in a dose-dependent manner”. The “tracer binding in control brains under blockade” value on CYP46A1 [2] (excess dose, Cyp46A1+/+ brains) is listed as “reduced to the signal observed in Cyp46A1−/− animals”. Also, the “autoradiography signal on co-incubation” value on CYP46A1 [11] is “relative signal reduction”. Also, the receptor occupancy at 0.9 µmol/kg on CYP46A1 [12] is more than 90%. In addition, at CYP46A1 [13], the “displacement of 18F-CHL-2205” value was “competitive displacement”.

For the compound `C[C@@H](c1ncncc1F)[C@](O)(Cn1cncn1)c1ccc(F)cc1F` [voriconazole], the “displacement of 18F-CHL-2205” value on CYP46A1 [13] was “competitive displacement”.
